Assay results reported in patent US20100286255A1, “METHOD FOR EXTRACTING SECOISOLARICIRESINOL AND DIHYDROQUERCETIN FROM WOOD” (priority 2007, published 2010).

Columns and labels:
[1] = test system: Saccharomyces cerevisiae BKM Y-1173; assay: Survival rate of S. cerevisiae cells under the action of hydrogen peroxide (antioxidant activity); assay type: cell-based; conditions: antioxidant 5 mg/ml (for DHQ + SECO, total concentration of both), 1 h incubation
Description: Antioxidant activity of DHQ, SECO, and their complexes obtained under the conditions of Examples 6 and 7 was studied by a known method (D. J. Jamieson, “Saccharomyces cerevisiae has distinct adaptive responses to both hydrogen peroxide and menadione” J. Bacteriol. 174: 6678-6681 (1992)) on yeast Saccharomyces cerevisiae BKM Y-1173. The yeasts were grown to the mid-logarithmic growth stage on […] medium containing 2% glucose, the yeast extract, and mineral salts. The yeast cells were separated from the medium by centrifugation, two times washed with water, and incubated with hydrogen peroxide and antioxidants in an aqueous suspension (OD600 0.1-0.15) for 1 h with periodic shaking. Then the corresponding dilutions were made, the yeasts were seeded on the agarized glucose-peptone medium and cultivated for […] at 30° C., and the number of grown colonies and the survival rate of S. cerevisiae cells were counted (Table 1).

[2] = test system: MCF-7 cells; assay: Proliferation of human breast cancer cells MCF-7 (estrogenic and antiestrogenic activity); assay type: cell-based; conditions: ethanol test = 100
Description: The comparative study of the proliferation of the human breast cancer cells MCF-7 under the action of estradiol, SECO, and SECO-containing extracts was carried out according to a known method (H. Adlercreutz, Y. Mousavi, “Enterolactone and estradiol inhibit each other's proliferative effect on MCF-7 breast cancer cells in culture,” J. Steroid. Biochem. Mol. Biol. 41: 615-619 (1992)). To estimate the estrogenic activity of the preparations containing SECO, 1 M solutions of the latter in ethanol (the concentration is indicated for SECO present in the solution) were added to the cell culture with achievement of the final 1 μM concentration of SECO. In each experiment on proliferation, 17β-estradiol was used as a positive standard for the estimation of the estrogenic activity and was also added as an ethanolic solution to achieve the final 1 nM concentration. To estimate the antiestrogenic activity, solutions of 17β-estradiol and the tested SECO preparations, among which there were the preparations obtained under the conditions of Examples 6, 7, and 14, were simultaneously added to the cell culture. The cell proliferation was estimated by counting the number of cells with the Coulter counter, and the results obtained are summarized in Table 2. In the test experiment (see entry 1 in Table 2), ethanol without lignan was added. Five measurements were carried out under each type of conditions.

Row | SMILES | Survival rate, % of test ([1]; 5 mM H2O2) | Survival rate, % of test ([1]; 10 mM H2O2) | Survival rate, % of test ([1]; Test (no H2O2)) | Proliferation of cells MCF-7, % ([2]; antiestrogenic activity, added simultaneously with 17β-estradiol (1 nM), SECO 1 μM) [%] | Proliferation of cells MCF-7, % ([2]; estrogenic activity, preparation alone, final 1 μM concentration of SECO) [%] | Proliferation of cells MCF-7, % ([2]; positive standard alone, final 1 nM concentration) [%]
1 | O=C1c2c(O)cc(O)cc2O[C@H](c2ccc(O)c(O)c2)[C@H]1O [DHQ (Example 13), Dihydroquercetin] | 35 ± 5 % of test | 9 ± 2 % of test | 100 % of test | – | – | –
2 | COc1cc(C[C@@H](CO)[C@H](CO)Cc2ccc(O)c(OC)c2)ccc1O [SECO (Example 14), secoisolariciresinol] | 35 ± 5 % of test | 9 ± 1 % of test | 100 % of test | 115 ± 10 | 115 ± 10 | –
3 | C[C@]12CC[C@@H]3c4ccc(O)cc4CC[C@H]3[C@@H]1CC[C@@H]2O [17β-estradiol, reference compound] | – | – | – | – | – | 140 ± 15
